Common to all, as to assay: NCI-60 cell line screen, 48 h
The test system of assay [1] is TK-10 renal.
In assay [2] the test system is NCI-H460 lung.
For assay [3], the system named is RPMI-8226 leukemia.
Assay [4] relates to SK-MEL-28 melanoma.
For assay [5], the system named is OVCAR-5 ovarian.
The subject of assay [6] is SNB-19 CNS.
For assay [7], the system named is KM12 colon.
Assay [8] deals with RXF 393 renal.
For assay [9], the system named is SN12C renal.

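Results reflect a 48-hour exposure of cells in 96-well plates to compound at five concentrations. GI50 = concentration required for 50% inhibition of growth. The concentration for full growth arrest is given as TGI.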

For the compound `COc1ccc(C[C@H](N)C(=O)N2C[C@@H](CO)C[C@@H](n3cnc4c(N(C)C)ncnc43)C2)cc1`, the TGI in assay [1], in assay [2], in assay [3], in [4], in assay [5] and in assay [6] was more than 100 µM in each case. The compound further returned a TGI in assay [7] of more than 100 µM.
Regarding `COc1cc2c(cc1OC)c1c(OC)c(OC)cc3c1c1c2sc(=S)n1CC3`, the TGI in assay [1], in [2], in assay [3], in assay [8], in assay [4] and in [5] was more than 100 µM throughout. The TGI in [9], in [6] and in assay [7] was more than 100 µM throughout.
On to `C/C(CCn1[nH]c(=O)ccc1=O)=N\Nc1ccc([N+](=O)[O-])cc1[N+](=O)[O-]`, for which the TGI in [1], in assay [2], in assay [3], in [8], in [4] and in assay [5] was more than 100 µM in each case. In addition, the TGI in [9], in [6] and in [7] was more than 100 µM in each case.
Take `CCOC(=O)c1c2cccccc2n2c(=O)cc(C)nc12`: the TGI in assay [1], in assay [2], in assay [3], in assay [8], in assay [4] and in [5] was more than 100 µM each time. For the same compound, the TGI in assay [9], in assay [6] and in assay [7] was more than 100 µM throughout.
Take `COc1ccc(-c2nc(-c3cnccn3)n(COCCO)n2)cc1`: the TGI in assay [1], in assay [2], in assay [3], in assay [8], in assay [4] and in assay [5] was more than 100 µM throughout. For the same compound, the TGI in assay [9], in assay [6] and in assay [7] was more than 100 µM in each case.
On to `N#Cc1cc(NC(=O)c2ccccc2)c(=O)n2c1[nH]c1ccccc12`, for which the TGI was 89.2 µM in [1]; more than 100 µM in assay [2]; 38.3 µM in assay [3]; 50.7 µM in assay [8]; 67.7 µM in [4]; more than 100 µM in assay [9]. Besides, the figures for the TGI in [6] and in assay [7] were 74.7 µM and more than 100 µM, respectively.
Turning to `Nc1ccc2c(c1)Oc1c(F)c(F)cc3c(=O)c(C(=O)O)cn-2c13`, the TGI in assay [1], in assay [3], in assay [8], in assay [4], in assay [5] and in assay [9] was more than 100 µM each time. The TGI in assay [6] and in [7] was more than 100 µM each time.
For the compound `Cc1cc(C)nc(NS(=O)(=O)c2ccc(NC(=O)c3ccc(Cl)c4c(Nc5ccc(S(=O)(=O)N=C(N)N)cc5)c5ccccc5nc34)cc2)n1`, the TGI in assay [1] was more than 100 µM; in assay [3] it was more than 100 µM; in assay [4] it was more than 100 µM; in [5] it was more than 100 µM; in assay [9], 68.7 µM; in assay [6], more than 100 µM. The same compound had a TGI in assay [7] of more than 100 µM.
Turning to `CN(C)CCNC(=O)c1cccc2ncc(-c3ccccc3)nc12`, the TGI in assay [1] was 34.7 µM; in [2], 19.6 µM; in [8], 18 µM; in assay [4], 36.1 µM; in assay [5] it was 30.5 µM; in assay [9] it was 42.2 µM. Also, the values for the TGI in assay [6] and in [7] were 78.7 µM and 29.4 µM, respectively.
With `COc1ccc(NC(=O)CCc2cc(C(C)(C)C)n[nH]2)cc1`, the TGI in assay [1], in assay [2], in [3], in [8], in assay [4] and in assay [5] was more than 100 µM each time. The TGI in assay [9], in [6] and in [7] was more than 100 µM each time.
Turning to `COc1cc(/C=C\c2ccc(OC(C)=O)cc2)cc(OC)c1OC`, the TGI in [2] was more than 100 µM; in assay [3] it was more than 100 µM; in assay [4], 7.67 µM; in [5], more than 100 µM; in assay [9] it was more than 100 µM; in [6], more than 100 µM. The same compound had a TGI in assay [7] of more than 100 µM.
For the compound `C#CCN(N=O)C(=O)NCCCC(NC(C)=O)C(=O)NCc1ccccc1` (centres undefined), the TGI in assay [1], in [2], in assay [3], in assay [8], in [4] and in [5] was more than 100 µM in each case. In addition, the TGI in [9], in assay [6] and in assay [7] was more than 100 µM each time.
On to `O=C1[C@H](Cl)[C@H]2c3cc4ccccc4nc3Oc3ccccc3N12`, for which the TGI in assay [1] was more than 100 µM; in assay [2] it was more than 100 µM; in [3], 65.5 µM; in [4], more than 100 µM; in [5], more than 100 µM; in assay [9], more than 100 µM. The TGI in [6] and in assay [7] was more than 100 µM in each case.
As to `CC(=O)O/N=C(Cl)/C(Cl)=N/OC(C)=O`, the TGI in [1], in assay [2], in assay [3], in assay [8], in [4] and in assay [5] was more than 100 µM each time. In addition, the TGI in assay [9], in assay [6] and in [7] was more than 100 µM throughout.
On to `OC1CCC[C@@H]1Sc1ccccc1` (some centres undefined), for which the TGI in assay [1], in assay [2], in assay [3], in [8], in [4] and in [9] was more than 100 µM each time. Also, the TGI in [6] and in assay [7] was more than 100 µM in each case.
Turning to `COC(=O)C(C(=O)C(=O)Nc1ccc(OC)cc1[N+](=O)[O-])c1nc2cc(C)c(C)cc2[nH]c1=O` (centres undefined), the TGI in [1], in assay [2], in assay [8], in assay [4], in assay [9] and in assay [6] was more than 100 µM in each case.
Consider `O=C(c1ccccc1)c1c(CC(O)c2ccccc2)n(C(=O)c2ccccc2)c2ccccc12` (centres undefined), for which the TGI in [1], in [2], in assay [3], in assay [4], in assay [5] and in [6] was more than 100 µM in each case. The compound also displayed a TGI in assay [7] of more than 100 µM.
As to `COc1cc(CC(C(=O)O)C(=O)O)c(OC)cc1CC(C(=O)O)C(=O)O`, the TGI in [1], in assay [2], in [3], in assay [8], in assay [5] and in assay [9] was more than 100 µM in each case. Besides, the TGI in assay [6] and in assay [7] was more than 100 µM each time.
`COc1ccc(/C=c2/sc3n(c2=O)NC(c2ccc(Cl)cc2)NN=3)cc1` (centres undefined): the TGI in assay [1], in assay [2], in [8], in assay [4], in assay [5] and in [9] was more than 100 µM each time. The TGI in [6] and in [7] was more than 100 µM throughout.
For the compound `Cc1nc(Nc2ccccc2)sc1C(=O)CC(=O)C(=O)NC12CC3CC(CC(C3)C1)C2`, the TGI in assay [1], in assay [2], in assay [8], in assay [4], in assay [5] and in assay [9] was more than 100 µM throughout. The TGI in assay [6] and in assay [7] was more than 100 µM each time.
Turning to `NNC(=O)N/N=C1\C(=O)N(c2nccs2)C(=O)C(=O)C1c1nc2ccccc2s1` (centres undefined), the TGI in assay [1], in assay [2], in assay [3], in assay [8], in assay [4] and in [5] was more than 100 µM each time. Besides, the TGI in assay [9], in assay [6] and in [7] was more than 100 µM each time.
As to `CC(=N)N(C)O`, the TGI in assay [1], in [2], in [3], in assay [8], in [4] and in assay [5] was more than 100 µM each time. Besides, the TGI in assay [9] and in assay [7] was more than 100 µM each time.
Regarding `CCC[CH2][Sn]([CH2]CCC)([O]C(=O)c1cc(F)cc(F)c1)[O][Sn]([CH2]CCC)([CH2]CCC)[O]C(=O)c1cc(F)cc(F)c1`, the GI50 in assay [1] was 1.41 µM; in [2], 2.67 µM; in assay [8] it was 0.423 µM; in assay [4] it was 1.14 µM; in [5], 1.92 µM; in assay [9] it was 1.41 µM. The results for the GI50 in [6] and in assay [7] were 1.52 µM and 3.58 µM, respectively. In addition, the TGI in [1] was determined as 2.72 µM; in assay [2], 6.74 µM; in assay [8], 1.56 µM; in assay [4], 2.38 µM; in assay [5] it was 3.43 µM; in assay [9], 2.76 µM. For the same compound, the TGI was 2.86 µM in [6] and 12.4 µM in [7].
For the compound `Cc1ccc(/C=C(\C#N)c2ccccc2)cc1`, the TGI in assay [1], in [2], in assay [3], in assay [8], in assay [4] and in [5] was more than 100 µM throughout. Further, the TGI in assay [9] and in assay [7] was more than 100 µM in each case.
Turning to `Cc1ccc(NC(=O)CC/C(CC(=O)C(C)(C)C)=N\Nc2ccc([N+](=O)[O-])cc2[N+](=O)[O-])cc1C`, the TGI in [1], in assay [2], in [8], in [4], in [5] and in assay [6] was more than 100 µM in each case. For the same compound, the TGI in assay [7] was more than 100 µM.
In the case of `O=C(O)CC1CC=C[C@H]2c3cc4c(cc3C(=O)NC12)OCO4` (some centres undefined), the TGI in assay [1], in assay [2], in [3], in [8], in assay [4] and in [9] was more than 75 µM throughout. Moreover, the TGI in assay [6] and in assay [7] was more than 75 µM each time.
As for `Cc1c(C2Cc3ccccc3N2)c2ccccc2n1C` (centres undefined), the TGI in assay [1], in [2], in assay [8], in assay [5], in assay [9] and in assay [6] was more than 100 µM each time. In assay [7], the TGI was more than 100 µM.
`CC1=C2[C@H](c3ccccc3)C3C=CC2(c2ccccc23)N(C(=O)C(c2ccccc2)c2ccccc2)C1=O` (some centres undefined): the TGI in assay [1], in [2], in [8], in [4], in [5] and in assay [9] was more than 100 µM each time. For the same compound, the TGI in assay [6] and in [7] was more than 100 µM throughout.
Consider `Cn1nc(-c2ccccc2)c(C(=O)/C=C/c2ccc(F)cc2)c(N2CCOCC2)c1=O`, for which the TGI was 97.5 µM in assay [1]; 78.2 µM in assay [2]; 23.2 µM in [3]; 27.8 µM in assay [8]; 31.5 µM in [4]; more than 100 µM in assay [9]. For the same compound, the TGI in assay [6] stood at 31.8 µM.
As for `CCCCCCCCCOC(=S)NCCCCC`, the TGI in [1] is 56.4 µM; in assay [2], 64 µM; in [3] it was 40 µM; in assay [8], 53.6 µM; in assay [4], more than 100 µM; in assay [9], 74 µM. In addition, the TGI in assay [6] is more than 100 µM.
Regarding `CCCCCCCCCCCCCC(=O)OCC1OC(n2cc(F)c(=O)[nH]c2=O)C(N)C(OC(=O)CCCCCCCCCCCCC)C1O` (centres undefined), the TGI in assay [1], in assay [2], in assay [3], in [8], in assay [4] and in assay [9] was more than 100 µM throughout. The TGI in assay [6] and in assay [7] was more than 100 µM in each case.

The values above are taken from PubChem BioAssay (NCI).
